Laboratory results: patent publication US10138249B2, “Triazolopyridines and triazolopyrazines as LSD1 inhibitors” (priority 2014, dated 2018)

Biological target: LSD-1 enzyme (Homo sapiens (Human), UniProt O60341)
Format: biochemical
Conditions: not given
Protocol: LANCE LSD1/KDM1A demethylase assay-10 μL of 1 nM LSD-1 enzyme (ENZO BML-SE544-0050) in the assay buffer (50 mM Tris, pH 7.5, 0.01% Tween-20, 25 mM NaCl, 5 mM DTT) were preincubated for 1 hour at 25° C. with 0.8 μL compound/DMSO dotted in black 384 well polystyrene plates. […] After stopping the reactions plates were incubated for 30 minutes and read on a PHERAstar FS plate reader (BMG Labtech).

SMILES | IC50
Cc1ccc(-c2c(-c3ccc(C#N)cc3)cc(OC[C@@H]3CCNC3)c3nn(CC4CCCC4)c(=O)n23)cc1 [Example 7, 4-{2-(cyclopentylmethyl)-5-(4-methylphenyl)-3-oxo-8-[(3R)-pyrrolidin-3-ylmethoxy]-2,3-dihydro[1,2,4]triazolo[4,3-a]pyridin-6-yl}benzonitrile] | < 50 nM
Cc1ccc(-c2c(-c3ccc(C#N)cc3)cc(OC[C@@H]3CCNC3)c3nn(CC#N)c(=O)n23)cc1 [Example 5, (R)-4-(2-(cyanomethyl)-3-oxo-8-(pyrrolidin-3-ylmethoxy)-5-p-tolyl-2,3-dihydro-[1,2,4]triazolo[4,3-a]pyridin-6-yl)benzonitrile] | < 50 nM
Cc1ccc(-c2c(-c3ccc(C#N)cc3)cc(OC[C@@H]3CCNC3)c3nn(Cc4ccccc4)c(=O)n23)cc1 [Example 16, 4-{2-benzyl-5-(4-methylphenyl)-3-oxo-8-[(3R)-pyrrolidin-3-ylmethoxy]-2,3-dihydro[1,2,4]triazolo[4,3-a]pyridin-6-yl}benzonitrile] | < 50 nM

Same assay, conditions: 1 nM LSD-1 enzyme, 1 hour preincubation at 25° C., 0.4 μM biotin-labeled histone H3 peptide substrate

SMILES | IC50
Cc1ccc(-c2c(-c3ccc(C#N)cc3)cc(OC[C@@H]3CCNC3)c3nn(CCC#N)c(=O)n23)cc1 [Example 6, 4-{2-(2-cyanoethyl)-5-(4-methylphenyl)-3-oxo-8-[(3R)-pyrrolidin-3-ylmethoxy]-2,3-dihydro[1,2,4]triazolo[4,3-a]pyridin-6-yl}benzonitrile] | ≤ 50 nM
Cc1ccc(-c2c(-c3ccc(C#N)cc3)cc(OC[C@@H]3CCNC3)c3nn(CCN(C)C)c(=O)n23)cc1 [Example 15, 4-{2-[2-(dimethylamino)ethyl]-5-(4-methylphenyl)-3-oxo-8-[(3R)-pyrrolidin-3-ylmethoxy]-2,3-dihydro[1,2,4]triazolo[4,3-a]pyridin-6-yl}benzonitrile] | ≤ 50 nM
Cc1ccc(-c2c(-c3ccc(C#N)cc3)cc(OC[C@@H]3CCNC3)c3nn(CCOc4ccccc4)c(=O)n23)cc1 [Example 14, 4-{5-(4-methylphenyl)-3-oxo-2-(2-phenoxyethyl)-8-[(3R)-pyrrolidin-3-ylmethoxy]-2,3-dihydro[1,2,4]triazolo[4,3-a]pyridin-6-yl}benzonitrile] | ≤ 50 nM
Cc1ccc(-c2c(-c3ccc(C#N)cc3)cc(OC[C@@H]3CCNC3)c3nncn23)cc1 [Example 1, 4-{5-(4-methylphenyl)-8-[(3R)-pyrrolidin-3-ylmethoxy][1,2,4]triazolo[4,3-a]pyridin-6-yl}benzonitrile] | ≤ 50 nM
Cc1ccc(-c2c(-c3ccc(C#N)cc3)cc(OC[C@@H]3CCNC3)c3nn(Cc4ccc(C#N)cc4)c(=O)n23)cc1 [Example 17, 4-{2-(4-cyanobenzyl)-5-(4-methylphenyl)-3-oxo-8-[(3R)-pyrrolidin-3-ylmethoxy]-2,3-dihydro[1,2,4]triazolo[4,3-a]pyridin-6-yl}benzonitrile] | ≤ 50 nM
Cc1ccc(-c2c(-c3ccc(C#N)c(F)c3)cc(OC[C@@H]3CCNC3)c3nncn23)cc1 [Example 2, 2-fluoro-4-{5-(4-methylphenyl)-8-[(3R)-pyrrolidin-3-ylmethoxy][1,2,4]triazolo[4,3-a]pyridin-6-yl}benzonitrile] | ≤ 50 nM
Cc1ccc(-c2c(-c3ccc(C#N)cc3)cc(OC[C@@H]3CCNC3)c3n[nH]c(=O)n23)cc1 [Example 3, 4-{5-(4-methylphenyl)-3-oxo-8-[(3R)-pyrrolidin-3-ylmethoxy]-2,3-dihydro[1,2,4]triazolo[4,3-a]pyridin-6-yl}benzonitrile] | ≤ 50 nM
Cc1ccc(-c2c(-c3ccc(C#N)cc3)cc(OC[C@@H]3CCNC3)c3nn(CC4CCNCC4)c(=O)n23)cc1 [Example 13, 4-{5-(4-methylphenyl)-3-oxo-2-(piperidin-4-ylmethyl)-8-[(3R)-pyrrolidin-3-ylmethoxy]-2,3-dihydro[1,2,4]triazolo[4,3-a]pyridin-6-yl}benzonitrile] | ≤ 50 nM
